Each structure is given as a SMILES string. Where two headings read alike, the source gives them in different places.

Experiment [1] relates to adenosine uptake into HeLa cells. In words: [3H]Adenosine uptake assay in HeLa cells. It counts as cell-based. The conditions noted are these: [3H]adenosine accumulation in HeLa cells, compound range 10 μM to 0.032 nM, read-out: ADU inhibition IC50. The method in brief: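 HeLa cells in HBSS + 5% FBS were preincubated 30 min at ambient temperature with compound (ten-point 1:3 series, 10 µM–[…] final), then given [3H]adenosine (added as a 500 nM solution) for 60 min. Cell-associated label was read by scintillating-plate proximity counting; IC50 from 4-parameter fit of cps versus log concentration.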

Experiment [2] addresses BTK enzyme (recombinant full-length BTK, hBTK) (Homo sapiens (Human), UniProt Q06187). In words: BTK enzymatic activity LANCE TR-FRET assay. It counts as biochemical. The conditions noted are these: 50 pM hBTK, 25 μM ATP, 2 μM biotin-A5-peptide; compound range 1 μM to 0.017 nM; read-out: BTK binding IC50.

Chain of BTK enzyme (recombinant full-length BTK, hBTK) (Q06187 whole entry): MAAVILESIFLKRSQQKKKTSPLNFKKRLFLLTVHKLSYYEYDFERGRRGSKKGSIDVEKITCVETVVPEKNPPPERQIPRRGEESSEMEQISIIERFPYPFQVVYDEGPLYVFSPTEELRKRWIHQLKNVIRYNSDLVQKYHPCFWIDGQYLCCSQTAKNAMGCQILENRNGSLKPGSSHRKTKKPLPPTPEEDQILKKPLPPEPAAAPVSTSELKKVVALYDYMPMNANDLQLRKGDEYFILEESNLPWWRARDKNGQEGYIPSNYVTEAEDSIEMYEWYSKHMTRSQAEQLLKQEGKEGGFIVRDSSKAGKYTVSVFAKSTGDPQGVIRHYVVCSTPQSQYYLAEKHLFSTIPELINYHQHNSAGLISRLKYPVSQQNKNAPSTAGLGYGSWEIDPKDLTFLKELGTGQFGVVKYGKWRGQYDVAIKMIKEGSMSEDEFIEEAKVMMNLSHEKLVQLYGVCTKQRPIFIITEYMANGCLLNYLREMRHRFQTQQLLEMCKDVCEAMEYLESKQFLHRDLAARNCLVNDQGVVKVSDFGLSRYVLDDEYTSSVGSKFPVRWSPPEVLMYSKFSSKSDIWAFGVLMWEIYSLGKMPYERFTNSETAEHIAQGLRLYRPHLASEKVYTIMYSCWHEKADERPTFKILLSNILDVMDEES

As a reminder, the IC50 is the concentration at which inhibition is half-maximal. As to `CC1(C)C[C@@H]2CC[C@@H](c3nc(-c4ccc([C@@](C)(O)c5cccc(C(F)(F)F)c5)cc4)c4c(N)ncc(F)n34)CN2C1=O` [Example 198, (6R,8aS)-6-[8-amino-5-fluoro-1-(4-{(1R)-1-hydroxy-1-[3-(trifluoromethyl)phenyl]ethyl}phenyl)imidazo [1,5-a]pyrazin-3-yl]-2,2-dimethylhexahydroindolizin-3(2H)-one], the IC50 came to 6850 nM in experiment [1] (Homo sapiens, HeLa) and 7.1 nM in experiment [2].

Consider `CC(O)(c1ccc(-c2nc([C@@H]3CC[C@H]4CCC(=O)N4C3)n3ccnc(N)c23)cc1)C1CC2CCC1CC2` (stereo partly drawn) [Example 147, (6R,8aS)-6-{8-amino-1-[4-(1-bicyclo[2.2.2]oct-2-yl-1-hydroxyethyl)phenyl]imidazo[1,5-a]pyrazin-3-yl}hexahydroindolizin-3(2H)-one], for which the IC50 is 3830 nM in experiment [1] and 26.2 nM in experiment [2].

As to `CC(O)(c1ccc(-c2nc([C@@H]3CC[C@H]4CCC(=O)N4C3)n3ccnc(N)c23)cc1)c1cccc(C2CC2(F)F)c1` (stereo partly drawn) [Example 164, (6R,8aS)-6-[8-amino-1-(4-{1-[3-(2,2-difluorocyclopropyl)phenyl]-1-hydroxyethyl}phenyl)imidazo[1,5-a]pyrazin-3-yl]hexahydroindolizin-3(2H)-one], the IC50 was 830 nM in experiment [1] and 48 nM in experiment [2].

`CCOc1cc([C@@](C)(O)c2cccc(C(F)(F)F)c2)ccc1-c1nc([C@@H]2CC[C@@H]3N(C2)C(=O)CC3(C)C)n2ccnc(N)c12` [Example 186, (6R,8aS)-6-[8-amino-1-(2-ethoxy-4-{(1S)-1-hydroxy-1-[3-(trifluoromethyl)phenyl]ethyl}phenyl)imidazo [1,5-a]pyrazin-3-yl]-1,1-dimethylhexahydroindolizin-3(2H)-one]: the IC50 in experiment [1] (Homo sapiens, HeLa) came to 3080 nM; in experiment [2], 1.3 nM.

For `Cc1cc([C@@](C)(O)c2cccc(C(F)(F)F)c2)ccc1-c1nc([C@@H]2CC[C@H]3CCC(=O)N3C2)n2ccnc(N)c12` [Example 103, (6R,8aS)-6-[8-amino-1-(4-{(1R)-1-hydroxy-1-[3-(trifluoromethyl)phenyl]-ethyl}-2-methylphenyl)imidazo [1,5-a]pyrazin-3-yl]hexahydroindolizin-3(2H)-one], the IC50 in experiment [1] (Homo sapiens, HeLa) stood at 487 nM; in experiment [2] it was 1000 nM.

For the compound `C[C@@](O)(c1ccc(-c2nc([C@@H]3CC[C@H]4CCC(=O)N4C3)n3ccnc(N)c23)cc1)c1cccc(-n2ccnc2)c1` [Example 152, (6R,8aS)-6-[8-amino-1-(4-{(1R)-1-hydroxy-1-[3-(1H-imidazol-1-yl)phenyl]ethyl}phenyl)imidazo[1,5-a]pyrazin-3-yl]hexahydroindolizin-3(2H)-one], the IC50 in experiment [1] (Homo sapiens, HeLa) worked out at 2960 nM; in experiment [2], 39.1 nM.

Take `CC(C)(C)c1cccc([C@](C)(O)c2ccc(-c3nc([C@@H]4CC[C@H]5CCC(=O)N5C4)n4ccnc(N)c34)cc2)c1` [Example 40, (6R,8aS)-6-(8-amino-1-{4-[(1R)-1-(3-tert-bulylphenyl)-1-hydroxyethyl]phenyl}imidazo[1,5-a]pyrazin-3-yl)hexahydroindolizin-3(2H)-one]: the IC50 in experiment [1] (Homo sapiens, HeLa) stood at 1760 nM; in experiment [2], 0.27 nM.

`C[C@](O)(c1ccc(-c2nc([C@@H]3CC[C@H]4CCC(=O)N4C3)n3ccnc(N)c23)cc1)c1cccc(Cl)c1` [Example 41, (6R,8aS)-6-(8-amino-1-{4-[(1S)-1-(3-chlorophenyl)-1-hydroxyethyl]phenyl}imidazo[1,5-a]pyrazin-3-yl)hexahydroindolizin-3(2H)-one]: the IC50 is 588 nM in experiment [1] (Homo sapiens, HeLa) and 116 nM in experiment [2].

For `CCOc1cc(C(C)(O)c2cccc(C(F)(F)F)c2)cc(F)c1-c1nc([C@@H]2CC[C@H]3CCC(=O)N3C2)n2ccnc(N)c12` (stereo partly drawn) [Example 22, (6R,8aS)-6-(8-amino-1-(2-ethoxy-6-fluoro-4-(1-hydroxy-1-(3-(trifluoromethyl)phenyl)ethyl)phenyl)imidazo[1,5-a]pyrazin-3-yl)hexahydroindolizin-3(2H)-one], the IC50 in experiment [1] (Homo sapiens, HeLa) stood at 3820 nM; in experiment [2] it was 1.7 nM.

Source of the values: US10214546B2, “Btk inhibitors” (MERCK SHARP & DOHME CORP., priority 2014, dated 2019).
